Laboratory results: publication PMC6178619, “Arylvinylpiperazine Amides, a New Class of Potent Inhibitors Targeting QcrB of Mycobacterium tuberculosis” (mBio, 2018)
≈ marks a conversion by molar mass, not a printed value. Read-outs that look alike come from different tables or passages of the source.

Assays:
Mycobacterium vaccae = test: MIC by REMA; assay type: cell-based; settings: Mycolicibacterium vaccae
wild-type H37Rv = assay type: cell-based, Mycobacterium tuberculosis; settings: 2.5× MIC, 24 h exposure
M. tuberculosis H37Rv [1] = assay type: cell-based; settings: up to a concentration 32-fold higher than the MIC, 7 days
Bacillus subtilis = test: MIC by REMA; assay type: cell-based
Mycobacterium ulcerans = test: MIC by REMA; assay type: cell-based
HepG2 cells = assay type: cell-based, human
Description: Human HepG2 cells (4,000 cells/well) were incubated for 3 days with 2-fold serially diluted compounds at 37°C under an atmosphere of 5% CO2. Cell viability was determined by the addition of resazurin (0.0025% wt/vol) for 4 h at 37°C, and the fluorescence intensity was measured as in REMA.

Candida albicans = test: MIC by REMA; assay type: cell-based
Escherichia coli = test: MIC by REMA; assay type: cell-based
Listeria monocytogenes = test: MIC by REMA; assay type: cell-based
Pseudomonas putida = test: MIC by REMA; assay type: cell-based
Mycobacterium marinum = test: MIC by REMA; assay type: cell-based
M. tuberculosis H37Rv [2] = test: MIC by resazurin reduction microplate assay (REMA); assay type: cell-based, Mycobacterium tuberculosis
Staphylococcus aureus = test: MIC by REMA; assay type: cell-based
[3] = tested on: H37Rv ΔcydAB::cydAB complemented strain; assay type: cell-based
[4] = tested on: M. tuberculosis H37Rv ΔcydAB; assay type: cell-based; settings: ΔcydAB strain; AX-35 14 µM, Q203 0.3 µM (100× MIC50)
Pseudomonas aeruginosa = test: MIC by REMA; assay type: cell-based
[5] = tested on: Mycobacterium massiliense; test: MIC by REMA; assay type: cell-based; settings: Mycobacteroides abscessus
Micrococcus luteus = test: MIC by REMA; assay type: cell-based
M. tuberculosis H37Rv [6] = assay type: cell-based; settings: AX-35 14 µM, Q203 0.3 µM (100× MIC50), glucose
M. bovis BCG = settings: cited from earlier work
M. tuberculosis H37Rv [7] = test: Acute mouse model of TB; assay type: in vivo, mouse (BALB/c); settings: for Reduction of bacterial load in mouse lungs vs TPGS vehicle control: once daily for 10 days
[8] = tested on: Corynebacterium diphtheriae; test: MIC by REMA; assay type: cell-based
M. tuberculosis H37Rv [9] = settings: cited from earlier work
[10] = tested on: M. tuberculosis H37Rv-infected THP-1 macrophages; test: microbe, parasite or virus in culture; assay type: cell-based; settings: Mycobacterium tuberculosis, THP-1, 48 h, read-out: Antimycobacterial activity against M. tuberculosis H37Rv, ex vivo in THP-1 macrophages (IC50)
[11] = tested on: Salmonella enterica serovar Typhimurium; test: MIC by REMA; assay type: cell-based
Enterococcus faecalis = test: MIC by REMA; assay type: cell-based
Mycobacterium smegmatis = test: MIC by REMA; assay type: cell-based; settings: Mycolicibacterium smegmatis
[12] = tested on: Mycobacterium canettii STB-L; test: MIC by REMA; assay type: cell-based; settings: Mycobacterium canetti
[13] = tested on: Corynebacterium glutamicum; test: MIC by REMA; assay type: cell-based
Mycobacterium bovis BCG = test: microbe, parasite or virus in culture; assay type: cell-based; settings: Mycobacterium tuberculosis variant bovis BCG
in vitro = test: in vitro
Description: Metabolic stability of the compounds was measured based on intrinsic clearance (Clint) in mouse and human liver microsomes as previously described ([42]). The final compound concentration in the mixture of microsomes and NADPH regeneration system was 2 µg/ml, and a mixture without NADPH regeneration was also prepared for each compound as a control of the stability of the compound with time.

Mycobacterium avium = test: MIC by REMA; assay type: cell-based
[14] = H37RV; Mycobacterium tuberculosis (Table 2 panel); read-out: MIC
[15] = Mycobacterium tuberculosis, H37RV, 144 h; read-out: Antimycobacterial activity against M. tuberculosis H37Rv, in vitro (MIC)
[16] = Mycobacterium canettii STB-L, read-out: MIC

| Structure (SMILES) | MIC (Mycobacterium vaccae) [µg/mL] | MIC (Bacillus subtilis) [µg/mL] | MIC (Mycobacterium ulcerans) [µg/mL] | Cytotoxicity in HepG2 cells (TD50) (HepG2 cells; 3 days incubation) [µg/mL] | MIC (Candida albicans) [µg/mL] | MIC (Escherichia coli) [µg/mL] | MIC (Listeria monocytogenes) [µg/mL] | MIC (Pseudomonas putida) [µg/mL] | MIC (Mycobacterium marinum) [µg/mL] | MIC (M. tuberculosis H37Rv [2]; [15]) [µg/mL] | MIC (Staphylococcus aureus) [µg/mL] | MIC (Pseudomonas aeruginosa) [µg/mL] | MIC [5] [µg/mL] | MIC (Micrococcus luteus) [µg/mL] | MIC [8] [µg/mL] | IC50 [10] [µg/mL] | MIC [11] [µg/mL] | MIC (Enterococcus faecalis) [µg/mL] | MIC (Mycobacterium smegmatis) [µg/mL] | MIC [13] [µg/mL] | also measured |
| --- | --- | --- | --- | --- | --- | --- | --- | --- | --- | --- | --- | --- | --- | --- | --- | --- | --- | --- | --- | --- | --- |
| O=C(/C=C/c1cccs1)N1CCN(Cc2ccc3c(c2)OCO3)CC1 [AX-35, (E)-1-(4-(Benzo[d][1,3]dioxol-5-ylmethyl)piperazin-1-yl)-3-(thiophen-2-yl)prop-2-en-1-one] | 12.1 (≈ 33.9 µM) | > 100 | 1.6 (≈ 4.49 µM) | 50 | > 100 | 74 (≈ 208 µM) | > 100 | > 100 | 11.5 (≈ 32.3 µM) | 0.05 (≈ 0.14 µM) | > 100 | > 100 | 7.7 (≈ 21.6 µM) | > 100 | > 100 | 0.1 (≈ 0.281 µM) | > 100 | > 100 | 100 (≈ 281 µM) | > 100 | Intracellular ATP level, lower than untreated control (wild-type H37Rv): ~90%; Mode of action (MBC, 99.9% killed) (M. tuberculosis H37Rv [1]): bacteriostatic; Antimycobacterial activity against M. tuberculosis H37Rv, in vitro (MIC) (M. tuberculosis H37Rv [2]): 0.05 µg/mL; MIC (M. tuberculosis H37Rv [2]; [14]): 0.05 µg/mL (≈ 0.14 µM); Outcome of AX-35 treatment in complemented strain [3]: survival of the bacteria; Increase in OCR on compound addition [4]: no longer observed; Oxygen consumption rate (OCR) change from basal on compound addition (M. tuberculosis H37Rv [6]): increase; MIC (M. bovis BCG): 0.3 µM (≈ 0.107 µg/mL); Reduction of bacterial load in mouse lungs vs TPGS vehicle control (M. tuberculosis H37Rv [7]; oral 200 mg/kg): 0.4 log10; MIC (M. tuberculosis H37Rv [9]): 0.3 µM (≈ 0.107 µg/mL); MIC [12, 16]: 0.003 µg/mL (≈ 0.00842 µM); MIC (Mycobacterium bovis BCG): 0.8 µg/mL (≈ 2.24 µM); Clearance Category (in vitro; human, microsomes): medium; microsomal CLint at 2 µg/ml (in vitro; human, microsomes): 21.7 µL/min/mg; Clearance Category (in vitro; mouse, microsomes): high; microsomal CLint at 2 µg/ml (in vitro; mouse, microsomes): 120 µL/min/mg; MIC (Mycobacterium avium): 8.2 µg/mL (≈ 23 µM) |
| O=C(/C=C/c1ccsc1)N1CCN(Cc2ccc3c(c2)OCO3)CC1 [AX-36, (E)-1-(4-(Benzo[d][1,3]dioxol-5-ylmethyl)piperazin-1-yl)-3-(thiophen-3-yl)prop-2-en-1-one] | 26.9 (≈ 75.5 µM) | > 100 | 1.6 (≈ 4.49 µM) | 37.5 | > 100 | 100 (≈ 281 µM) | > 100 | > 100 | 19.6 (≈ 55 µM) | 0.1 (≈ 0.281 µM) | > 100 | > 100 | 10.4 (≈ 29.2 µM) | > 100 | > 100 | 0.3 (≈ 0.842 µM) | > 100 | > 100 | 63 (≈ 177 µM) | > 100 | Intracellular ATP level, lower than untreated control (wild-type H37Rv): ~90%; MIC (M. tuberculosis H37Rv [2]; [14]): 0.1 µg/mL (≈ 0.281 µM); MIC [12, 16]: 0.01 µg/mL (≈ 0.0281 µM); MIC (Mycobacterium bovis BCG): 0.8 µg/mL (≈ 2.24 µM); Clearance Category (in vitro; human, microsomes): medium; microsomal CLint at 2 µg/ml (in vitro; human, microsomes): 16.8 µL/min/mg; Clearance Category (in vitro; mouse, microsomes): high; microsomal CLint at 2 µg/ml (in vitro; mouse, microsomes): 117 µL/min/mg; MIC (Mycobacterium avium): 12.8 µg/mL (≈ 35.9 µM) |
| O=C(/C=C/c1cscn1)N1CCN(Cc2ccc3c(c2)OCO3)CC1 [AX-37, (E)-1-(4-(Benzo[d][1,3]dioxol-5-ylmethyl)piperazin-1-yl)-3-(1λ^3,3λ^2-thiazol-4-yl)prop-2-en-1-one] |  |  |  | 25 |  |  |  |  |  | 0.1 (≈ 0.28 µM) |  |  |  |  |  | 0.2 (≈ 0.56 µM) |  |  |  |  | Reduction of bacterial load in mouse lungs vs TPGS vehicle control (M. tuberculosis H37Rv [7]; oral 100 mg/kg): 0.6 log10 |
| O=C(/C=C/c1ccccc1)N1CCN(Cc2ccc3c(c2)OCO3)CC1 [AX-38, (E)-1-(4-(Benzo[d][1,3]dioxol-5-ylmethyl)piperazin-1-yl)-3-phenylprop-2-en-1-one] |  |  |  | 37.5 |  |  |  |  |  | 0.2 (≈ 0.571 µM) |  |  |  |  |  | 0.3 (≈ 0.856 µM) |  |  |  |  | Clearance Category (in vitro; human, microsomes): medium; microsomal CLint at 2 µg/ml (in vitro; human, microsomes): 13.3 µL/min/mg; Clearance Category (in vitro; mouse, microsomes): high; microsomal CLint at 2 µg/ml (in vitro; mouse, microsomes): 63.8 µL/min/mg |
| O=C(/C=C/c1nccs1)N1CCN(Cc2ccc3c(c2)OCO3)CC1 [AX-39, (E)-1-(4-(Benzo[d][1,3]dioxol-5-ylmethyl)piperazin-1-yl)-3-(thiazol-2-yl)prop-2-en-1-one] |  |  |  | 75 |  |  |  |  |  | 0.3 (≈ 0.839 µM) |  |  |  |  |  | 1.8 (≈ 5.04 µM) |  |  |  |  | Reduction of bacterial load in mouse lungs vs TPGS vehicle control (M. tuberculosis H37Rv [7]; oral 100 mg/kg): 0.9 log10 |
| NC(=O)N1c2ccccc2C=Cc2ccccc21 [Carbamazepine, reference compound] |  |  |  |  |  |  |  |  |  |  |  |  |  |  |  |  |  |  |  |  | Clearance Category (in vitro; human microsomes, compound 2 µg/ml): low; Clearance Category (in vitro; mouse microsomes, compound 2 µg/ml): low |
| CCc1nc2ccc(Cl)cn2c1C(=O)NCc1ccc(N2CCC(c3ccc(OC(F)(F)F)cc3)CC2)cc1 [Compound Q203, reference compound] |  |  |  |  |  |  |  |  |  |  |  |  |  |  |  |  |  |  |  |  | Increase in OCR on compound addition [4]: no longer observed; Oxygen consumption rate (OCR) change from basal on compound addition (M. tuberculosis H37Rv [6]): increase |
| NNC(=O)c1ccncc1 [INH, isoniazid, reference compound] |  |  |  |  |  |  |  |  |  |  |  |  |  |  |  |  |  |  |  |  | log10 CFU per lung (M. tuberculosis H37Rv [7]; 25 mg/kg oral, Day 10): below l.o.d. |
| CO[C@H]1/C=C/O[C@@]2(C)Oc3c(C)c(O)c4c(O)c(c(/C=N/N5CCN(C)CC5)c(O)c4c3C2=O)NC(=O)/C(C)=C\C=C\[C@H](C)[C@H](O)[C@@H](C)[C@@H](O)[C@@H](C)[C@H](OC(C)=O)[C@@H]1C [Rifampin, rifampin, reference compound] | 2.5 (≈ 3.04 µM) | 0.3 (≈ 0.365 µM) | 0.01 (≈ 0.0122 µM) |  | 1.5 (≈ 1.82 µM) | 6.7 (≈ 8.14 µM) | 0.8 (≈ 0.972 µM) | 0.2 (≈ 0.243 µM) | 0.5 (≈ 0.608 µM) |  | 3.8 (≈ 4.62 µM) | 1 (≈ 1.22 µM) | 26.9 (≈ 32.7 µM) | 0.7 (≈ 0.851 µM) | 0.0004 (≈ 0.000486 µM) | 0.1 (≈ 0.122 µM) | 0.7 (≈ 0.851 µM) | 0.6 (≈ 0.729 µM) | 1.7 (≈ 2.07 µM) | 0.004 (≈ 0.00486 µM) | Cytotoxicity in HepG2 cells (TD50) (HepG2 cells; human): 75 µg/mL; MIC (M. tuberculosis H37Rv [2]; Mycobacterium tuberculosis, H37RV): 0.001 µg/mL (≈ 0.00122 µM); MIC (M. tuberculosis H37Rv [2]; Mycobacterium tuberculosis, H37RV, 144 h, read-out: Antimycobacterial activity against M. tuberculosis H37Rv, in vitro (MIC)): 0.0008 µg/mL (≈ 0.000972 µM); MIC [12]: 0.002 µg/mL (≈ 0.00243 µM); MIC (Mycobacterium bovis BCG): 0.0008 µg/mL (≈ 0.000972 µM); MIC (Mycobacterium avium): 25 µg/mL (≈ 30.4 µM) |
